Data on 4 molecules can be found in patent US20230416245A1, “ADENOSINE ANALOGS FOR THE TREATMENT OF DISEASE” (BIOINTERVENE, INC., priority 2020, published 2023).

Where only a bound is given, the exact number is not on record here.

In the assay the target is human adenosine A3 receptor (Homo sapiens (Human), UniProt P0DMS8). Put plainly: Intracellular cAMP levels (inhibition of forskolin-stimulated cAMP production). The settings on record: for EC50: CHO cells expressing human adenosine A3 receptors, forskolin 10 μM; for CAMP Efficacy (%): maximal response as percentage of the response produced by 100 nM IB-MECA. The class given is cell-based. In outline:
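CHO-K1 cells stably expressing human A3 receptor were exposed to compound (0.1 nM–1 μM) for 5 min at 37 °C, then 10 μM forskolin for 10 min. cAMP measured by competitive enzyme immunoassay (OD 450 nm); EC50 from Hill fit of inhibition, maximum relative to 100 nM IB-MECA.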
A general note: Cyclic AMP is a second messenger, typically raised through Gs and lowered through Gi signalling.

Sequence of human adenosine A3 receptor (P0DMS8 whole entry): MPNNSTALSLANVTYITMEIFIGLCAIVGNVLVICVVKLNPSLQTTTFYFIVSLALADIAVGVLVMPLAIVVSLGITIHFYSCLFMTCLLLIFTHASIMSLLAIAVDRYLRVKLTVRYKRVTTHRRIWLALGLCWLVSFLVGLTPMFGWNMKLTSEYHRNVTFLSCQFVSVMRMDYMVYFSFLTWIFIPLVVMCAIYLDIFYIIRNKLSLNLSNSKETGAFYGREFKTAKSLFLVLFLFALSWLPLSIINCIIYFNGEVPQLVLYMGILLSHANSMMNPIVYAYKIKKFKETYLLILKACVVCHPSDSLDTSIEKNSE

The EC50 is the concentration at which the effect is half-maximal. Turning to `Cc1c(Cl)nc2c(ncn2[C@H]2[C@H](O)[C@H](O)[C@@H]3C[C@@H]32)c1NCC(F)F` [Compound 60, (1R,2R,3S,4R,5S)-4-(5-chloro-7-((2,2-difluoroethyl)amino)-6-methyl-3H-imidazo[4,5-b]pyridin-3-yl)bicyclo[3.1.0]hexane-2,3-diol], the EC50 is above 10000 nM and the “CAMP Efficacy (%)” value is listed as 1%.

Turning to `CCNc1cc(C#CC2CC2)nc2c1ncn2[C@H]1[C@H](O)[C@H](O)[C@@H]2C[C@@H]21` [Compound 46, (1R,2R,3S,4R,5S)-4-(5-(cyclopropylethynyl)-7-(ethylamino)-3H-imidazo[4,5-b]pyridin-3-yl)bicyclo[3.1.0]hexane-2,3-diol], the EC50 was above 10000 nM and the “CAMP Efficacy (%)” value is 1%.

Consider `O[C@@H]1[C@H](O)[C@@H]2C[C@@H]2[C@H]1n1cnc2c(NCC(F)F)nc(Cl)nc21` [Compound 35, (1R,2R,3S,4R,5S)-4-(2-chloro-6-((2,2-difluoroethyl)amino)-9H-purin-9-yl)bicyclo[3.1.0]hexane-2,3-diol], for which the EC50 was determined as 1.33 nM and the “CAMP Efficacy (%)” value amounted to 80.97%.

Consider `O[C@@H]1[C@H](O)[C@@H]2C[C@@H]2[C@H]1n1cnc2c(NCC(F)F)cc(Cl)nc21` [Compound 40, (1R,2R,3S,4R,5S)-4-(5-chloro-7-((2,2-difluoroethyl)amino)-3H-imidazo[4,5-b]pyridin-3-yl)bicyclo[3.1.0]hexane-2,3-diol], for which the EC50 stood at 8.6 nM and the “CAMP Efficacy (%)” value is 77.6%.
